Experimental data reported in patent US7662810B2, “2-arylmethylazetidine carbapenem derivatives and preparation thereof” (Korea Research Institute of Chemical Technology, priority 2004, dated 2010).
In brackets after ≈: the same amount, converted by molar mass. One block for each molecule: values may come before it.

How the values were obtained:
[1] = molecular target: T1, Dihydropeptidase-1 (DHP-1) (Sus scrofa, UniProt P22412)
T1 sequence (P22412 17-384): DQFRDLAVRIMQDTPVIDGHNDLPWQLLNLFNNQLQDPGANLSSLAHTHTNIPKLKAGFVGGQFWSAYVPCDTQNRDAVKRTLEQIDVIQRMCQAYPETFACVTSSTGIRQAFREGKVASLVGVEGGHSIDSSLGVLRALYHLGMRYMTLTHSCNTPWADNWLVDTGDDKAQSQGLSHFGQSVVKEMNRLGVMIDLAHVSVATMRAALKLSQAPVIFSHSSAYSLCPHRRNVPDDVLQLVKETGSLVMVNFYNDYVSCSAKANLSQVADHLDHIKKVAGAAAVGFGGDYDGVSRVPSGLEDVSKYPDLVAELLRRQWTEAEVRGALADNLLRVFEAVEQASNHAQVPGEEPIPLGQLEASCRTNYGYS
Description: The rate of degradation of the inventive compounds by the action of DHP-1 enzyme extracted from hog kidney was determined as follow.
0.2 unit of the enzyme was allowed to react with the above solution at 30° C., and the absorbance at 299 nm of the remaining medicament was measured to determine the degradation rate. The absorbance was measured at 0, 0.5, 1, 2 and 4 hour points, and T1/2, the time when the concentration of the medicament become the half, was obtained by regression analysis.

[2] = tested on: Salmonella typhimurium 179; assay: Measurement of Minimum Inhibitory Concentration (MIC); type: cell-based; settings: Salmonella enterica, TYPHIMURIUM
Description: (§1) The antibacterial activities of the compounds of the present invention prepared in the above Examples against Gram-positive and Gram-negative bacteria, MRSA and QRS were tested as follows.
(§2) Respective bacterial strains were inoculated into 3 ml of Fleisch extract broth (beef extract 1%, peptone 1%, NaCl 0.3%, Na2HPO4.12H2O 0.2%, pH 7.4-7.5. 10% horse serum was supplemented for Streptococcus pyogenes and S. facium) and cultured on a shaking incubator at 37° C. for 18 hours. About 10^4 CFU/spot of the cultured bacterial strains were inoculated onto Müller-Hinton agar plates containing serial double dilutions (final concentration of 0.002 to 100 μg/ml) of a test compound employing an automatic inoculator (Dynatech, USA), and incubated at 37° C. for 18 hours. When the incubation was completed, the minimum inhibitory concentration was determined. Meropenem (Yuhan corporation, Korea) and vancomycin (Cj Inco., Korea) were used as standard antibiotics, respectively.

Escherichia coli 1507 E = assay: as above; type: cell-based
Description: as §1, §2

Escherichia coli TEM = assay: as above; type: cell-based; settings: Escherichia coli
Description: as §1, §2

[3] = tested on: Klebsiella aerogenes 1522 E; assay: as above; type: cell-based
Description: as §1, §2

[4] = tested on: Enterobacter cloacae 1321 E; assay: as above; type: cell-based
Description: as §1, §2

[5] = tested on: Staphylococcus aureus 503; assay: as above; type: cell-based
Description: as §1, §2

[6] = tested on: Staphylococcus pyogenes 308A; assay: as above; type: cell-based; settings: Staphylococcus aureus, 308A
Description: as §1, §2

Escherichia coli DC 2 = assay: as above; type: cell-based
Description: as §1, §2

[7] = tested on: Staphylococcus aureus 285; assay: as above; type: cell-based
Description: as §1, §2

[8] = tested on: Staphylococcus pyogenes 77A; assay: as above; type: cell-based; settings: Staphylococcus aureus, 77A
Description: as §1, §2

[9] = tested on: Klebsiella oxytoca 1082 E; assay: as above; type: cell-based
Description: as §1, §2

Escherichia coli DC 0 = assay: as above; type: cell-based
Description: as §1, §2

[10] = tested on: Enterobacter cloacae P 99; assay: as above; type: cell-based
Description: as §1, §2

[11] = tested on: Staphylococcus faecium MD 8b; assay: as above; type: cell-based; settings: Staphylococcus, MD8B
Description: as §1, §2

Escherichia coli 078 = assay: as above; type: cell-based
Description: as §1, §2

[12] = tested on: Staphylococcus aureus 694E; assay: Measurement of Minimum Inhibitory Concentration (MIC), MRSA; type: cell-based; settings: Staphylococcus aureus
Description: as §1, §2

[13] = tested on: Staphylococcus aureus 121E; assay: as above; type: cell-based; settings: Staphylococcus aureus
Description: as §1, §2

[14] = tested on: Staphylococcus aureus 697E; assay: as above; type: cell-based; settings: Staphylococcus aureus
Description: as §1, §2

[15] = tested on: Staphylococcus aureus 88E; assay: as above; type: cell-based; settings: Staphylococcus aureus
Description: as §1, §2

[16] = tested on: Staphylococcus aureus 208E; assay: as above; type: cell-based; settings: Staphylococcus aureus
Description: as §1, §2

[17] = tested on: Staphylococcus aureus 690E; assay: as above; type: cell-based; settings: Staphylococcus aureus
Description: as §1, §2

[18] = tested on: Staphylococcus aureus 692E; assay: as above; type: cell-based; settings: Staphylococcus aureus
Description: as §1, §2

[19] = tested on: Staphylococcus aureus 693E; assay: as above; type: cell-based; settings: Staphylococcus aureus
Description: as §1, §2

[20] = tested on: Staphylococcus aureus 256E; assay: as above; type: cell-based; settings: Staphylococcus aureus
Description: as §1, §2

[21] = tested on: Staphylococcus aureus 695E; assay: as above; type: cell-based; settings: Staphylococcus aureus
Description: as §1, §2

[22] = tested on: Staphylococcus epidermidis 291; assay: Measurement of Minimum Inhibitory Concentration (MIC), QRS; type: cell-based; settings: Staphylococcus epidermidis, 291
Description: as §1, §2

[23] = tested on: Staphylococcus aureus 241; assay: as above; type: cell-based; settings: Staphylococcus aureus, 241
Description: as §1, §2

[24] = tested on: Staphylococcus aureus 179; assay: as above; type: cell-based; settings: Staphylococcus aureus, 179
Description: as §1, §2

[25] = tested on: Staphylococcus epidermidis 178; assay: as above; type: cell-based; settings: Staphylococcus epidermidis, 178
Description: as §1, §2

[26] = tested on: Staphylococcus aureus 293; assay: as above; type: cell-based; settings: Staphylococcus aureus, 293
Description: as §1, §2

Compound: C[C@@H](O)[C@H]1C(=O)N2C(C(=O)[O-])=C(SC3CN(Cc4cccc(C(F)(F)F)c4)C3)[C@H](C)[C@H]12.[K+] [Exam. 20, Potassium(1R,5S,6S)-2-[1-(3-trifluoromethylbenzyl)-azetidine-3-yl-thio]-6-[(1R)-1-hydroxylethyl]-1-methylcarbapen-2-em-3-carboxylate]
- Relative T1/2 [1]: 0.88
- T1/2 (time when the concentration of the medicament become the half) [1]: 16.03

Compound: CN[C@H](CC(C)C)C(=O)N[C@H]1C(=O)N[C@@H](CC(N)=O)C(=O)N[C@H]2C(=O)N[C@H]3C(=O)N[C@H](C(=O)N[C@H](C(=O)O)c4cc(O)cc(O)c4-c4cc3ccc4O)[C@H](O)c3ccc(c(Cl)c3)Oc3cc2cc(c3O[C@@H]2O[C@H](CO)[C@@H](O)[C@H](O)[C@H]2O[C@H]2C[C@](C)(N)[C@H](O)[C@H](C)O2)Oc2ccc(cc2Cl)[C@H]1O [Vancomycin, vancomycin, reference compound]
- MIC [2]: 100 µg/mL (≈ 69 µM)
- MIC (Escherichia coli 1507 E): 100 µg/mL (≈ 69 µM)
- MIC (Escherichia coli TEM): 100 µg/mL (≈ 69 µM)
- MIC [3]: 100 µg/mL (≈ 69 µM)
- MIC [4]: 100 µg/mL (≈ 69 µM)
- MIC [5]: 0.391 µg/mL (≈ 0.27 µM)
- MIC [6]: 0.781 µg/mL (≈ 0.539 µM)
- MIC (Escherichia coli DC 2): 50 µg/mL (≈ 34.5 µM)
- MIC [7]: 0.391 µg/mL (≈ 0.27 µM)
- MIC [8]: 0.391 µg/mL (≈ 0.27 µM)
- MIC [9]: 100 µg/mL (≈ 69 µM)
- MIC (Escherichia coli DC 0): 100 µg/mL (≈ 69 µM)
- MIC [10]: 100 µg/mL (≈ 69 µM)
- MIC [11]: 0.391 µg/mL (≈ 0.27 µM)
- MIC (Escherichia coli 078): 100 µg/mL (≈ 69 µM)
- MIC [12]: 1.56 µg/mL (≈ 1.08 µM)
- MIC [13]: 0.781 µg/mL (≈ 0.539 µM)
- MIC [14]: 0.781 µg/mL (≈ 0.539 µM)
- MIC [15]: 0.781 µg/mL (≈ 0.539 µM)
- MIC [16]: 0.781 µg/mL (≈ 0.539 µM)
- MIC [17]: 0.391 µg/mL (≈ 0.27 µM)
- MIC [18]: 0.781 µg/mL (≈ 0.539 µM)
- MIC [19]: 1.56 µg/mL (≈ 1.08 µM)
- MIC [20]: 0.781 µg/mL (≈ 0.539 µM)
- MIC [21]: 1.56 µg/mL (≈ 1.08 µM)
- MIC [22]: 1.56 µg/mL (≈ 1.08 µM)
- MIC [23]: 0.781 µg/mL (≈ 0.539 µM)
- MIC [24]: 0.781 µg/mL (≈ 0.539 µM)
- MIC [25]: 1.56 µg/mL (≈ 1.08 µM)
- MIC [26]: 0.781 µg/mL (≈ 0.539 µM)

Second part, the molecule after the results:

- Relative T1/2 [1]: 1.88
- T1/2 (time when the concentration of the medicament become the half) [1]: 38.43
Compound: C[C@H](c1ccccc1)N1CC(SC2=C(C(=O)[O-])N3C(=O)[C@H]([C@@H](C)O)[C@H]3[C@H]2C)C1.[K+] [Exam. 21, Potassium(1R,5S,6S)-2-{1-[(1R)-1-phenylethyl]-azetidine-3-yl-thio}-6-[(1R)-1-hydroxylethyl]-1-methylcarbapen-2-em-3-carboxylate]

- Relative T1/2 [1]: 1.38
- T1/2 (time when the concentration of the medicament become the half) [1]: 25.24
Compound: Cc1ccc(CN2CC(SC3=C(C(=O)[O-])N4C(=O)[C@H]([C@@H](C)O)[C@H]4[C@H]3C)C2)cc1.[K+] [Exam. 23, Potassium(1R,5S,6S)-2-[1-(4-methylbenzyl)-azetidine-3-yl-thio]-6-[(1R)-1-hydroxylethyl]-1-methylcarbapen-2-em-3-carboxylate]

- Relative T1/2 [1]: 1.08
- T1/2 (time when the concentration of the medicament become the half) [1]: 19.71
Compound: CC(c1ccc(Br)cc1)N1CC(SC2=C(C(=O)[O-])N3C(=O)[C@H]([C@@H](C)O)[C@H]3[C@H]2C)C1.[K+] (stereo partly drawn) [Exam. 24, Potassium(1R,5S,6S)-2-{1-[1-(4-bromophenyl)ethyl]-azetidine-3-yl-thio}-6-[(1R)-1-hydroxylethyl]-1-methylcarbapen-2-em-3-carboxylate]
